Measured values taken from patent publication US7947854B2, “Bis-cationic compounds and use thereof” (The University of Sydney, priority 2003, dated 2011).
Marks after values point to notes of the source that are not given here.

How the values were obtained:
[1] = system: C. albicans (ATCC10231) phospholipases; assay: Inhibition of C. albicans phospholipases; type: biochemical
[2] = system: two strains of C. neoformans and one strain of Candida albicans; assay: Standardised serial dilution sensitivity test, results stated over all strains; type: cell-based
Experimental: Antifungal susceptibility testing. The antifingal activity of the compounds was measured by a standard microdilution method. […] The fungal strains tested included Cryptococcus neoformans H99, Cryptococcus neoformans ATCC 90112 and Candida albicans ATCC 10231. All tests were performed in duplicate.

[3] = system: cytosolic phospholipase B (PLB activity); assay: Radiometric assay, cytosolic PLB activity; type: biochemical, Cryptococcus neoformans H99; conditions: pH 4
Experimental: (§1) Fungal isolates and media. […] Isolate H99 was kindly supplied by Dr. Gary Cox (Duke University Medical Center, Durham, N.C., USA), and subcultured onto Sabouraud dextrose agar (SDA) at 30° C.
(§2) Cellular disruption to prepare membrane and cytosolic fractions. The cell pellet from the preparation of the supernatant, above, was also frozen at −70° C. After washing twice with imidazole buffer, it was disrupted in the presence of a protease inhibitor cocktail (P 8215 for fungal and yeast cells; 4-(2-aminoethyl)benzenesulfonyl fluoride hydrochloride, 100 mM, 1,10-phenanthroline, 500 mM, pepstatin A, 2.2 mM, E-64, 1.4 mM; Sigma) in a MiniBeadbeater-8 Cell Disrupter (MBB-8; Daintree Scientific, Tasmania, Australia) for three cycles of 1 min, alternating with a 1 min cooling period on ice. The homogenate was centrifuged at 14,000 g for 15 min to obtain the membrane (pellet) and the cytosolic (supernatant) fractions.
(§3) Radiometric assay method for phospholipases. Enzyme activities were measured as described previously in a final volume of 125 μL at 37° C. For the determination of secreted PLB activity, carrier dipalmitoyl phosphatidylcholine (DPPC, final concentration 800 μM) and 1,2-di[1-^14C] palmitoyl phosphatidylcholine (20,000 dpm) were dried under nitrogen and suspended in 125 mM imidazole acetate buffer (assay buffer, pH 4.0) by sonication using a Branson 450 sonifier. The reaction time was 22 min, using 1 μg total protein and PLB activity was determined by the rate of decrease of the radiolabelled PC substrate, with appearance of the label in free fatty acid. This assay also simultaneously allows for the determination of phospholipase A, C and D activities. These activities were measured by the appearance of radiolabel from PC in Lyso PC, diacylglycerol and phosphatidic acid, respectively.
(§4) All reactions were terminated by adding 0.5 mL of chloroform:methanol (2:1 v/v). The reaction products were extracted by the method as disclosed in Bligh, E. C. and W. J. Dyer. 1959 ‘A rapid method of total lipid extraction and purification.’ Can. J. Biochem. Physiol. 37:911-917, separated by TLC and quantified as previously described. In the case of PLC activity, the TLC plates were developed in petroleum ether (BP 60-80° C.): diethyl ether: acetic acid (90:15:1, v/v/v) instead of chloroform:methanol:water (65:25:4, v/v/v).
(§5) All experiments were carried out in duplicate or triplicate. The effects of pH on the various phospholipase activities were measured using 50 mM final concentration of imidazole-acetate buffer (pH range 3-5), MES buffer (pH range 6-8) and glycine buffer (pH 9-10). Controls for non-enzymic breakdown of substrates were included at all pH values. Cations, Triton X-100 and metal chelators were made up as stock solutions in water and diluted to the final concentration in the appropriate assay buffer.
(§6) Preparation of inhibitors and use in assays. The following compounds were tested (for structures, see FIG. 2): compound 1, 1,12-bis(tributylphosphonium)dodecane dibromide (Fluka AG, Buchs, Switzerland); compound 2, 1,10-bis(tributylammonium)-decane dibromide; compound 3, 1,12-bis(tributylammonium)do-decane dibromide (both synthesised in-house); compound 4, 1,10-bis(trimethylammonium)decane dibromide [“decamethonium”] (Sigma, St. Louis Mo., USA). All compounds were prepared as stock solutions of 700 μM in assay buffer containing 5 mM EDTA, which was then diluted serially with buffer to obtain solutions of 70, 7, 0.7 and 0.07 μM. In each assay, 45 μL of these solutions was used, and the final volume of 125 μL was made up of substrate, enzyme and buffer. The radiometric assay was carried out as above.

[4] = system: membrane-associated phospholipase B (PLB activity); assay: Radiometric assay, membrane-associated PLB activity; type: biochemical, Cryptococcus neoformans H99; conditions: pH 4
Experimental: as §1, §2, §3, §4, §5, §6

[5] = system: membrane-associated phospholipase B (LPL/LPTA activities); assay: Radiometric assay, membrane-associated LPL/LPTA activities; type: biochemical, Cryptococcus neoformans H99; conditions: pH 4
Experimental: as §1, §2
Secreted LPL and LPTA activities were measured simultaneously in a reaction mixture containing 1-[^14C]palmitoyl lyso-PC (25,000 dpm) and carrier lyso-PC (final concentration 200 μM) in assay buffer. The reaction time was […] with 1 μg of total protein and LPL activity was measured by the rate of loss of 1-[^14C]palmitoyl lyso-PC with release of radiolabelled fatty acids. LPTA activity was estimated from the rate of formation of radiolabelled PC.
as §4, §5
Preparation of inhibitors and use in assays. The following compounds were tested (for structures, see FIG. 2): compound 1, 1,12-bis(tributylphosphonium)dodecane dibromide (Fluka AG, Buchs, Switzerland); compound 2, 1,10-bis(tributylammonium)-decane dibromide; compound 3, 1,12-bis(tributylammonium)do-decane dibromide (both synthesised in-house); compound 4, 1,10-bis(trimethylammonium)decane dibromide [“decamethonium”] (Sigma, St. Louis Mo., USA). All compounds were prepared as stock solutions of 700 μM in assay buffer containing 5 mM EDTA, which was then diluted serially with buffer to obtain solutions of 70, 7, 0.7 and 0.07 μM. In each assay, 45 μL of these solutions was used, and the final volume of 125 μL was made up of substrate, enzyme and buffer. The radiometric assay was carried out as above. Inhibition was calculated as the percent of substrates (DPPC or Lyso-PC) remaining in the case of PLB and LPL activities, or of DPPC produced, in the case of the LPTA activity. The amounts converted, or produced, in the inhibitor-free control were normalised to 100%, and the inhibition calculated against it. All assays were done in triplicate.
Under these conditions only PLB, LPL and LPTA activities (both secreted and cell-associated) were measured. Initially, compounds deemed to be potential inhibitors were assayed at 25 and 250 μM.

CCCC[N+](CCCC)(CCCC)CCCCCCCCCCCC[N+](CCCC)(CCCC)CCCC [Compound 3, 1,12-bis(tributylammonium)do-decane dibromide]
inhibition of C. albicans (ATCC10231) phospholipases, in words [1]: inhibits | antifungal / fungicidal activity, in words [2]: fungicidal activity

CCCC[P+](CCCC)(CCCC)CCCCCCCCCCCC[P+](CCCC)(CCCC)CCCC [Compound 1, 1,12-bis(tributylphosphonium)dodecane dibromide]
% Inhibition PLB, Cytosolic Enzyme ([3]; 2.5 μM): 0% | % Inhibition PLB, Cytosolic Enzyme ([3]; 25 μM): 0% | % Inhibition PLB, Cytosolic Enzyme ([3]; 250 μM): 41.3* % | % Inhibition PLB, Membrane-bound Enzyme ([4]; 2.5 μM): 0% | % Inhibition PLB, Membrane-bound Enzyme ([4]; 25 μM): 0% | % Inhibition PLB, Membrane-bound Enzyme ([4]; 250 μM): 0% | % Inhibition LPL, Membrane-bound Enzyme ([5]; 2.5 μM): 0% | % Inhibition LPTA, Membrane-bound Enzyme ([5]; 2.5 μM): 0% | % Inhibition LPL, Membrane-bound Enzyme ([5]; 25 μM): 0% | % Inhibition LPTA, Membrane-bound Enzyme ([5]; 25 μM): 0% | % Inhibition LPL, Membrane-bound Enzyme ([5]; 250 μM): 0% | % Inhibition LPTA, Membrane-bound Enzyme ([5]; 250 μM): 0%
